Experiments:
Assay type in all cases: cell-based
B16 melanocytes [1] = experiment: MTT cell multiplication / cell survival ratio of B16 melanocytes; details: blank = 100, n = 6
Method: B16 melanocytes (from SIBCB) were cultivated with RPMI-1640 culture fluid containing about 10% newborn calf serum and penicillium—streptomycin under the condition of about 37° C., about 5% CO2. Digest the melanocytes with about 0.125% trypsin (Difco, US) when the cell fusion reached more than about 80%.
The activity of melanocytes multiplication was determined by measurement of […] (MTT). The B16 melanocytes at densities of about 1×10^5 were inoculated in 24-well cell cultured plate. The culture fluid was changed next day and the tested substances in different concentration were added individually: the lingonberry extract III prepared in example 3 (comprised anthocyanidin about 10%, OPC about 35% and resveratrol about 10%), arbutin bought from the market, and blank as control group.
After 20 hours cultivation and adding about 0.15 ml MTT, the cells were cultivated continuously for about 4 hours. Centrifuged at 3000 rpm for about 10 min and deserted the supernatant, cultivated cells in every well were added DMSO (about 1%) about 1 ml and shook for dissolving thoroughly. Then about 150 μl cultivated cells aspiration were added into 96-well cell cultured plate. The OD value of the aspiration was measured with MQX200 micro-plate spectrophotometer (Bio-Tek, US), at 570 nm excitation wave length and 630 nm reference wave length.
Calculated the inhibition ratio of tested agents on melanocytes using the following formula: melanocytes multiplication inhibition ratio=(1−OD of tested group/OD of control group)*100%
The experimental method was the same as example 4. The lingonberry extract III was prepared by the method in example 3, pine bark extract and grape seed extract were both bought from market, blank was used as control group.

[2] = biological target: T1, B16 melanocytes' tyrosinase (Mus musculus, UniProt P11344); experiment: Inhibition rate of B16 melanocytes' tyrosinase activity (L-dopa oxidation, OD 475 nm); details: 3 days, n = 6
T1 construct: The cells were dissolved by 1% Troton X-100; host or cells: B16 melanocytes (melanoma cells)
T1 sequence (P11344 19-533): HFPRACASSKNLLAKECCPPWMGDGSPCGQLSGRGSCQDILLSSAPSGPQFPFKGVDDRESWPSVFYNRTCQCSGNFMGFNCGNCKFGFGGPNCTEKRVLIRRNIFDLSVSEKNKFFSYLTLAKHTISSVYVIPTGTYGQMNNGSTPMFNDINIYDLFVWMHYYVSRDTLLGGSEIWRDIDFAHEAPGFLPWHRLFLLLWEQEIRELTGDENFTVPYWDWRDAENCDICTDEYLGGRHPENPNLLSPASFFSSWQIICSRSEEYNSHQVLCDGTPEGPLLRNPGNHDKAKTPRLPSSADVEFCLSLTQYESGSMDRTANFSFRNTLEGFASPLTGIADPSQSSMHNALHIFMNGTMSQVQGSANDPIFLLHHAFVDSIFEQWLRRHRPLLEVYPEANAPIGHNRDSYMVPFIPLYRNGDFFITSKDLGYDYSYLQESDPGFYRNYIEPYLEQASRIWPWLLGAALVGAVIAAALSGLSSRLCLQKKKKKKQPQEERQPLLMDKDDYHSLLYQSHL
Method: (§1) B16 melanocytes(from SIBCB) were cultivated with RPMI-1640 culture fluid containing 10% newborn calf serum and penicillium—streptomycin under the condition of about 37° C., 5% CO2. The melanocytes were digested with about 0.125% trypsin (Difco, US) to be passaged or tested when the cell fusion reached more than 80%.
Tyrosinase activity is determined by the speed of dopa being oxidized into dopaquinone. L-dopa was used as catalysis substrate. Optical density (OD) of dopaquinone was determined at 475 nm by improved Marlinez-Esparza method. (Ando H, Itoh A, Mishima Y et al., Correlation between the number of melanosomes, tyrosinase mRNA levels, and tyrosinase activity cultured murine melanoma cells in response to various melanogenesis regulatory agents. J Cell Physiol, 1995, 163: 608-614.). The higher of the OD, the stronger of the tyrosinase.
The lingonberry extract III was prepared by the method in example 3, other materials were all bought from market.
After 3 days of effects of tested substance, the supernatant was deserted and the remainder was washed for 3 times with pH 7.0 PBS after centrifuging at 1000 rpm for 5 min every time. The cells were dissolved by 1% Troton X-100 400 μl adding in every well of the cultured plate. 100 μl solution in every well was taken and then added into 96-well cultured plate. After pre-temperature at 37° C., 100 μl 1.7% L-dopa (sigma, US) was added into every well. The OD A value then was determined every 10 min within 1 hour at 475 nm and 37° C., using blank as zero adjustment.
Calculated every tested agents' inhibition rate of B16 melanocytes' tyrosinase activity using the following formula: inhibition rate of melanocytes' tyrosinase activity=(1−OD of tested group/OD of control group)*100%
Experiment method was the same as example 6. The lingonberry extract I, II and III used as tested substance were prepared by the method in example 1, 2 and 3 respectively.

B16 melanocytes [3] = experiment: Inhibition rate of melanin content (melanogenesis) in B16 melanocytes; details: Melanocyte, 72 hours, n = 4
Method: as §1, with “containing about” for “containing”, “of” for “of about”, “than about” for “than”
After the cells dissolved in strong base solution, melanin was dissolved and then the OD was tested. Melanin content was determined by Hosoi improved method. (Victoria M, Virador, Nobuhiko Kobayashi et al, A standardized protocol for assessing regulators of pigmentation. Analytical Biochemistry, 1999, 270:207˜219.)
B16 melanocytes (1×10^5) were cultivated in 6-well cultured plate. After 24 hours incubation the solution was changed and different kinds of tested substances in different concentration were added respectively. The lingonberry extract III was prepared by the method in example 3, other substances were all bought from market.
After 72 hours, reactants were washed by PBS for 2 times, dried by air-drying, dissolved into 400 μl 1N NaOH (containing 1% DMSO), heated at 80° C. for 1 hour and then cooled. The OD was tested by enzyme-linked immunosorbent assay instrument at 475 nm.
Calculated every tested agents' inhibition rate of melanin content using the following formula: inhibition rate of melanin content=[1−(OD of tested group/well cell density of tested group)/(OD of control group/well cell density of control group)]*100%
Experiment method was the same as example 7. The lingonberry extract I, II and III used as tested substance were prepared by the method in example 1, 2 and 3 respectively.

Q: Which cell survival ratio (B16 melanocytes [1]; 20 mg/L) does the source give for `OC[C@H]1O[C@@H](Oc2ccc(O)cc2)[C@H](O)[C@@H](O)[C@@H]1O` [arbutin] here?
A: The cell survival ratio was 110.72 ± 0.41%.

Q: And the cell survival ratio (B16 melanocytes [1]; 40 mg/L)?
A: The cell survival ratio was 94.30 ± 0.45%.

Q: What about the cell survival ratio (B16 melanocytes [1]; 60 mg/L) of the same molecule?
A: Its cell survival ratio is 91.74 ± 0.39%.

Q: And the cell survival ratio (B16 melanocytes [1]; 80 mg/L)?
A: Its cell survival ratio is 79.66 ± 1.08%.

Q: What about the inhibition at 1 µg/mL ([2]; 1 mg/L) of the same molecule?
A: Its inhibition at 1 µg/mL is 7.19%.

Q: And the inhibition at 5 µg/mL ([2]; 5 mg/L)?
A: Its inhibition at 5 µg/mL is 10.4 ± 2.97%.

Q: What about the inhibition at 10 µg/mL ([2]; 10 mg/L) of the same molecule?
A: Its inhibition at 10 µg/mL is 20.5 ± 1.63%.

Q: What about the inhibition at 20 µg/mL ([2]; 20 mg/L) of the same molecule?
A: Its inhibition at 20 µg/mL is 46.4 ± 2.53%.

Q: What about the inhibition at 30 µg/mL ([2]; 30 mg/L) of the same molecule?
A: Its inhibition at 30 µg/mL is 53.3 ± 2.27%.

Q: What about the inhibition at 1 µg/mL (B16 melanocytes [3]; 1 mg/L) of the same molecule?
A: The inhibition at 1 µg/mL was 7.27 ± 2.29%.

Q: What about the inhibition at 5 µg/mL (B16 melanocytes [3]; 5 mg/L) of the same molecule?
A: The inhibition at 5 µg/mL was 7.59 ± 0.35%.

Q: What about the inhibition at 10 µg/mL (B16 melanocytes [3]; 10 mg/L) of the same molecule?
A: Its inhibition at 10 µg/mL is 6.23 ± 0.86%.

Q: And the inhibition at 20 µg/mL (B16 melanocytes [3]; 20 mg/L)?
A: Its inhibition at 20 µg/mL is 10.8 ± 0.33%.

Q: What about the inhibition at 30 µg/mL (B16 melanocytes [3]; 30 mg/L) of the same molecule?
A: The inhibition at 30 µg/mL was 12.1 ± 1.3%.
